Experimental data as given in the OPERA property sets (Mansouri et al. 2018).
≈ marks a conversion by molar mass, not a printed value.

Row | solubility (25 °C) | Structure (SMILES) | further results
1 | 635 mM (≈ 56000 µg/mL) | CC(C)C(C)O (stereo not drawn) | 
2 | 73.4 mM (≈ 7500 µg/mL) | CC(C)CCCO | 
3 | 305 mM (≈ 30600 µg/mL) | C=CC(O)C(C)C (stereo not drawn) | 
4 | 40.4 mM (≈ 4700 µg/mL) | CCCC(O)CCC | 
5 | 380 mM (≈ 38100 µg/mL) | CC=CC(O)CC (stereo not drawn) | 
6 | 0.234 mM (≈ 37 µg/mL) | CCCCCCCCCCO | 
7 |  | CCCCCC(C)(C)O | solubility (30 °C): 19.1 mM (≈ 2490 µg/mL)
8 | 41.9 mM (≈ 4870 µg/mL) | CC(C)CCC(C)O (stereo not drawn) | 
9 | 4.15 mM (≈ 540 µg/mL) | CCCCCCCCO | 
10 | 83.5 mM (≈ 9700 µg/mL) | CCCCC(C)(C)O | 
11 | 101 mM (≈ 11700 µg/mL) | CCC[C@](C)(O)CC | 
12 |  | CCCCC(C)(O)CC (stereo not drawn) | solubility (28 °C): 23.2 mM (≈ 3020 µg/mL)
13 | 28.5 mM (≈ 3310 µg/mL) | CC(C)(C)CCCO | 
